{
  "source": "patent US7429578B2",
  "about": "“Tricyclic inhibitors of poly(ADP-ribose) polymerases” (Agouron Pharmaceuticals, Inc., priority 1999, dated 2008)",
  "key": {"purified PARP protein": {"target": "purified PARP protein (Homo sapiens, UniProt P09874)", "sequence (P09874 whole entry)": "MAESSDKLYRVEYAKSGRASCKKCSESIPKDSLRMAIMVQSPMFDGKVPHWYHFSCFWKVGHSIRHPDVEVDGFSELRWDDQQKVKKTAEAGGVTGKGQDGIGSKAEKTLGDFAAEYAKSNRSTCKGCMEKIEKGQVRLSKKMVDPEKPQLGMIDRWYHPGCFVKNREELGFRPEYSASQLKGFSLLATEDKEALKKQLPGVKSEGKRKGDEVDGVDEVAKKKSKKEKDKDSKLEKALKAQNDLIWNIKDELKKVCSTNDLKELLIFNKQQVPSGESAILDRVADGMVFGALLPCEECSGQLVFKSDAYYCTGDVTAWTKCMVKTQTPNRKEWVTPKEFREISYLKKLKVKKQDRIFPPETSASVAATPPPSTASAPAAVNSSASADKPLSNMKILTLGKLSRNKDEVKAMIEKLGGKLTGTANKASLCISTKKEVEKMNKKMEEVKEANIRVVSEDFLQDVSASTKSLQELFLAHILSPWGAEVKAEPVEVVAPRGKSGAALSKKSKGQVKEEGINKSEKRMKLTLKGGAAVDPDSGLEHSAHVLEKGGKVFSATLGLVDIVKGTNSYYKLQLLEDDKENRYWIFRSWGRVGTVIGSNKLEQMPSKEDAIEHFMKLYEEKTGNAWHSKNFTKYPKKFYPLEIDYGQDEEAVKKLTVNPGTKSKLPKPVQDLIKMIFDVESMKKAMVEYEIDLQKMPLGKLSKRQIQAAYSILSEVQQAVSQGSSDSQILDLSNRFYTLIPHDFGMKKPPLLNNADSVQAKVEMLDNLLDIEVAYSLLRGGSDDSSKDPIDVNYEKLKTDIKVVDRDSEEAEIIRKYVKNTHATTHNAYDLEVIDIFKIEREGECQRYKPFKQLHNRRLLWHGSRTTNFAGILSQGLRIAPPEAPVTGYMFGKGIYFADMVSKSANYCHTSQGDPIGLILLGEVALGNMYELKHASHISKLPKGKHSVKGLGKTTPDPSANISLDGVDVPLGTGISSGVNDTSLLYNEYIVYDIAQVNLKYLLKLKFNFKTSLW", "experiment": "PARP enzyme inhibition assay", "assay_type": "biochemical", "conditions": "[32P]NAD+ incorporation, 500 μM NAD+, 25° C.; two values in a cell = tested twice; read-out: Inhibition Constant Ki"}, "A549 cells": {"test_system": "A549 cells", "experiment": "Cytotoxicity potentiation assay (topotecan)", "assay_type": "cell-based", "conditions": "test compound at 0.4 μM, ratio of IC50 of topotecan alone to IC50 of topotecan with test compound"}},
  "data": [
    {"compound": "O=C1NCCc2c(-c3cccc(CO)c3)[nH]c3cccc1c23", "note": "[Compound 16, 2-(3-Hydroxymethylphenyl)-3,4,5,6-tetrahydro-1H-azepino[5,4,3-cd]indol-6-one]", "values": [
      {"measurement": "Ki", "setting": "purified PARP protein", "value": 5, "unit": "nM"},
      {"measurement": "Cytotoxicity Potentiation PF50", "setting": "A549 cells", "value": 1.9},
      {"measurement": "melting point", "value": "258 to 259 °C (dec.)"}
    ]},
    {"compound": "CN(C)Cc1cccc(-c2[nH]c3cccc4c3c2CCNC4=O)c1", "note": "[Compound 22, 2-(3-(N,N-Dimethylamino)methylphenyl)-3,4,5,6-tetrahydro-1H-azepino[5,4,3-cd]indol-6-one]", "values": [
      {"measurement": "Ki", "setting": "purified PARP protein", "value": 7.2, "unit": "nM"},
      {"measurement": "Cytotoxicity Potentiation PF50", "setting": "A549 cells", "value": 2.3},
      {"measurement": "melting point", "value": "222 to 225", "unit": "°C"}
    ]},
    {"compound": "O=C1NCCc2c(-c3cccc(C(F)(F)F)c3)[nH]c3cccc1c23", "note": "[Compound 30, 2-(3-Trifluoromethyl-phenyl)-1,3,4,5-tetrahydro-azepino[5,4,3-cd]indol-6-one]", "values": [
      {"measurement": "Ki", "setting": "purified PARP protein", "value": 6.3, "unit": "nM"},
      {"measurement": "Cytotoxicity Potentiation PF50", "setting": "A549 cells", "value": 2.4},
      {"measurement": "melting point", "value": "212.5 to 213.5", "unit": "°C"}
    ]},
    {"compound": "CNCc1cccc(-c2[nH]c3cccc4c3c2CCNC4=O)c1", "note": "[Compound PP, 2-(3-(N-Methylamino)methylphenyl)-3,4,5,6-tetrahydro-1H-azepino[5,4,3-cd]indol-6-one]", "values": [
      {"measurement": "Ki", "setting": "purified PARP protein", "value": 5.3, "unit": "nM"},
      {"measurement": "Cytotoxicity Potentiation PF50", "setting": "A549 cells", "value": 2.3},
      {"measurement": "melting point", "value": "190 to 192", "unit": "°C"}
    ]},
    {"compound": "CN(C)Cc1ccc(-c2[nH]c3cccc4c3c2CCNC4=O)cc1F", "note": "[Compound PPP, 2-(4-Dimethylaminomethyl-3-fluoro-phenyl)-1,3,4,5-tetrahydro-azepino[5,4,3-cd]indol-6-one]", "values": [
      {"measurement": "Ki", "setting": "purified PARP protein", "value": 9.4, "unit": "nM"},
      {"measurement": "Cytotoxicity Potentiation PF50", "setting": "A549 cells", "value": 2.1},
      {"measurement": "melting point", "value": "221.5 to 222.5", "unit": "°C"}
    ]},
    {"compound": "O=C1NCCc2c(-c3ccc(Cl)cc3)[nH]c3cccc1c23", "note": "[GGG, 2-(4-Chloro-phenyl)-1,3,4,5-tetrahydro-azepino[5,4,3-cd]indol-6-one]", "values": [
      {"measurement": "Ki", "setting": "purified PARP protein", "value": 4.1, "unit": "nM"},
      {"measurement": "Cytotoxicity Potentiation PF50", "setting": "A549 cells", "value": 1.9},
      {"measurement": "melting point", "value": "250 to 252", "unit": "°C"}
    ]},
    {"compound": "CNCc1cccc(-c2[nH]c3cc(F)cc4c3c2CCNC4=O)c1", "note": "[HHHH, 8-Fluoro-2-(3-methylaminomethyl-phenyl)-1,3,4,5-tetrahydro-azepino[5,4,3-cd]indol-6-one]", "values": [
      {"measurement": "Ki", "setting": "purified PARP protein", "value": 2.2, "unit": "nM"},
      {"measurement": "Cytotoxicity Potentiation PF50", "setting": "A549 cells", "value": 1.9},
      {"measurement": "melting point", "value": "270 to 272 °C (dec.)"}
    ]},
    {"compound": "O=C1NCCc2c(-c3ccc(CCN4CCCC4)cc3)[nH]c3cccc1c23", "note": "[MMM, 2-[4-(2-Pyrrolidin-1-yl-ethyl)-phenyl]-1,3,4,5-tetrahydro-azepino[5,4,3-cd]indol-6-one]", "values": [
      {"measurement": "Ki", "setting": "purified PARP protein", "value": 9.4, "unit": "nM"},
      {"measurement": "Cytotoxicity Potentiation PF50", "setting": "A549 cells", "value": 2.3},
      {"measurement": "melting point", "value": "228 to 229 °C (dec.)"}
    ]},
    {"compound": "CNCc1ccc(-c2[nH]c3cccc4c3c2CCNC4=O)cc1", "note": "[OO, 2-(4-(N-Methylamino)methylphenyl)-3,4,5,6-tetrahydro-1H-azepino[5,4,3-cd]indol-6-one]", "values": [
      {"measurement": "Ki", "setting": "purified PARP protein", "value": 4.1, "unit": "nM"},
      {"measurement": "Cytotoxicity Potentiation PF50", "setting": "A549 cells", "value": 2.4}
    ]},
    {"compound": "O=C1NCCc2c(-c3ccc(CN4CCCC4)c(F)c3)[nH]c3cccc1c23", "note": "[QQQ, 2-(3-Fluoro-4-pyrrolidin-1-ylmethyl-phenyl)-1,3,4,5-tetrahydro-azepino[5,4,3-cd]indol-6-one]", "values": [
      {"measurement": "Ki", "setting": "purified PARP protein", "value": 10.2, "unit": "nM"},
      {"measurement": "Cytotoxicity Potentiation PF50", "setting": "A549 cells", "value": 2.3},
      {"measurement": "melting point", "value": "139 to 140 °C (dec.)"}
    ]},
    {"compound": "O=C1NCCc2c(-c3cccc(CN4CCCC4)c3)[nH]c3cccc1c23", "note": "[TTTT, 2-(3-Pyrrolidin-1-ylmethylphenyl)-3,4,5,6-tetrahydro-1H-azepino[5,4,3-cd]indol-6-one]", "values": [
      {"measurement": "Ki", "setting": "purified PARP protein", "value": 7.4, "unit": "nM"},
      {"measurement": "Cytotoxicity Potentiation PF50", "setting": "A549 cells", "value": 1.6},
      {"measurement": "melting point", "value": "219 to 223 °C (dec.)"}
    ]},
    {"compound": "O=C1NCCc2c(-c3cccc(Oc4ccc(F)cc4)c3)[nH]c3cccc1c23", "note": "[UU, 2-[3-(4-Fluoro-phenoxy)-phenyl]-1,3,4,5-tetrahydro-azepino[5,4,3-cd]indol-6-one]", "values": [
      {"measurement": "Ki", "setting": "purified PARP protein", "value": 10, "unit": "nM"},
      {"measurement": "Cytotoxicity Potentiation PF50", "setting": "A549 cells", "value": 1.8},
      {"measurement": "melting point", "value": "240 to 241", "unit": "°C"}
    ]},
    {"compound": "O=C1NCCc2c(-c3ccc(-c4ccccc4)cc3)[nH]c3cccc1c23", "note": "[VV, 2-Biphenyl-4-yl-1,3,4,5-tetrahydro-azepino[5,4,3-cd]indol-6-one]", "values": [
      {"measurement": "Ki", "setting": "purified PARP protein", "value": 10, "unit": "nM"},
      {"measurement": "Cytotoxicity Potentiation PF50", "setting": "A549 cells", "value": 2.0},
      {"measurement": "melting point", "value": "277 to 279 °C (dec.)"}
    ]},
    {"compound": "O=C1NCCc2c(-c3ccc(CN4CCOCC4)cc3)[nH]c3cccc1c23", "note": "[VVVV, 2-(4-Morpholin-4-ylmethylphenyl)-3,4,5,6-tetrahydro-1H-azepino[5,4,3-cd]indol-6-one]", "values": [
      {"measurement": "Ki", "setting": "purified PARP protein", "value": 13.2, "unit": "nM"},
      {"measurement": "Cytotoxicity Potentiation PF50", "setting": "A549 cells", "value": 2.1}
    ]},
    {"compound": "C[N+](C)([O-])Cc1ccc(-c2[nH]c3cccc4c3c2CCNC4=O)cc1", "note": "[XXXX, 2-(4-(N,N-Dimethylamino)methylphenyl)-3,4,5,6-tetrahydro-1H-azepino[5,4,3-cd]indol-6-one, N-oxide]", "values": [
      {"measurement": "Ki", "setting": "purified PARP protein", "value": 18, "unit": "nM"},
      {"measurement": "Cytotoxicity Potentiation PF50", "setting": "A549 cells", "value": 1.7}
    ]}
  ]
}
